Converted amounts (≈) assume the structure as drawn. Read-outs that look alike come from different tables or passages of the source.
Experiments:
[1] = tested on: MEM-nonsusceptible Enterobacterales; assay: MIC, broth microdilution; format: cell-based; details: for CLSI MIC interpretation I (intermediate) / CLSI MIC interpretation R (resistant) / CLSI MIC interpretation S (susceptible): CLSI breakpoints, marked c: breakpoints for β-lactam alone; for MIC50 / MIC90: fixed concentration (μg/mL) in label
[2] = tested on: MEM-nonsusceptible Enterobacterales with serine-carbapenemases; assay: MIC, broth microdilution; format: cell-based; details: for CLSI MIC interpretation I (intermediate) / CLSI MIC interpretation R (resistant) / CLSI MIC interpretation S (susceptible): CLSI breakpoints, marked c: breakpoints for β-lactam alone
[3] = tested on: A. baumannii CDC-83 (NDM-1, OXA-23, 69); assay: MIC, broth microdilution; format: cell-based, Acinetobacter baumannii; details: agent alone
[4] = tested on: 55 isolates of A. baumannii; assay: MIC, broth microdilution; format: cell-based, Acinetobacter baumannii; details: for CLSI MIC interpretation I (intermediate) / CLSI MIC interpretation R (resistant) / CLSI MIC interpretation S (susceptible): CLSI breakpoints, marked c: breakpoints for β-lactam alone
[5] = tested on: E. coli CDC-149 (NDM-7), PBP3 mutations; assay: MIC, broth microdilution; format: cell-based; details: Escherichia coli
[6] = tested on: E. coli CDC-151 (NDM-5), PBP3 mutations; assay: MIC, broth microdilution; format: cell-based; details: Escherichia coli, fixed BLI concentration (μg/mL) in parentheses in label
[7] = tested on: E. coli CDC-162 (NDM-7), PBP3 mutations; assay: MIC, broth microdilution; format: cell-based; details: Escherichia coli
[8] = tested on: MBL-producing isolates (Enterobacterales); assay: MIC, broth microdilution; format: cell-based; details: for CLSI MIC interpretation I (intermediate) / CLSI MIC interpretation R (resistant) / CLSI MIC interpretation S (susceptible): CLSI breakpoints, marked c: breakpoints for β-lactam alone; for MIC50: read-out: MIC50; for MIC90: read-out: MIC90
[9] = tested on: isolates of E. coli with NDM and PBP3 mutations; assay: MIC, broth microdilution; format: cell-based; details: Escherichia coli, read-out: median MICs
[10] = tested on: Acinetobacter calcoaceticus NBRC12552 (ATCC 14987); assay: MIC, reference strains of aerobic bacteria; format: cell-based
[11] = tested on: Staphylococcus aureus KUB4690/methicillin-resistant; assay: MIC, reference strains of aerobic bacteria; format: cell-based
[12] = tested on: Klebsiella aerogenes NCTC 10006 (ATCC 13048); assay: MIC, reference strains of aerobic bacteria; format: cell-based
[13] = tested on: Enterococcus faecalis ATCC 29212; assay: MIC, reference strains of aerobic bacteria; format: cell-based; details: ATCC29212
[14] = tested on: Streptococcus pyogenes ATCC 12344; assay: MIC, reference strains of aerobic bacteria; format: cell-based; details: ATCC12344
[15] = tested on: Enterobacterales (154), CDC AR Bank; assay: MIC, broth microdilution; format: cell-based
[16] = tested on: Streptococcus agalactiae ATCC 13813; assay: MIC, reference strains of aerobic bacteria; format: cell-based; details: ATCC13813
[17] = tested on: Staphylococcus epidermidis KUB4871/methicillin-sensitive; assay: MIC, reference strains of aerobic bacteria; format: cell-based
[18] = tested on: Enterobacter cloacae NBRC 13535 (ATCC 13047); assay: MIC, reference strains of aerobic bacteria; format: cell-based
[19] = tested on: Pseudomonas aeruginosa ATCC 27853; assay: MIC, reference strains of aerobic bacteria; format: cell-based; details: ATCC27853
[20] = tested on: Streptococcus porcinus ATCC 12391; assay: MIC, reference strains of aerobic bacteria; format: cell-based; details: ATCC12391
[21] = tested on: Proteus vulgaris ATCC 6380; assay: MIC, reference strains of aerobic bacteria; format: cell-based; details: ATCC6380
[22] = tested on: Fusobacterium varium ATCC 27725; assay: MIC, agar dilution, reference strains of anaerobic bacteria; format: cell-based; details: ATCC27725
[23] = tested on: Clostridioides difficile ATCC 43255; assay: as above; format: cell-based; details: ATCC43255
Parvimonas micra KUB3000 = assay: as above; format: cell-based
OXA-65 = OXA-65 (Acinetobacter baumannii, UniProt Q58XD3); assay: Ki app determination (Waley's method)
Chain of OXA-65 (Q58XD3 entry or part of it): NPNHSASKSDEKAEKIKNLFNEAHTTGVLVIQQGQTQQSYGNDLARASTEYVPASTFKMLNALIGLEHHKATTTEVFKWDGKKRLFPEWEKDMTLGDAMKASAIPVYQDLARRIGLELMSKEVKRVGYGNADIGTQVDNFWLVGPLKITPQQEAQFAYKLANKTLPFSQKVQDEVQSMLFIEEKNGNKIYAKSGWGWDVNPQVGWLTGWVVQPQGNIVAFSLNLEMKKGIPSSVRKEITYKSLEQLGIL

[24] = tested on: Clostridioides difficile ATCC BAA-1870; assay: MIC, agar dilution, reference strains of anaerobic bacteria; format: cell-based; details: ATCCBAA1870
KPC-38 = KPC-38 (Klebsiella pneumoniae, UniProt Q9F663); assay: Ki app determination (Waley's method); details: read-out: Ki app, means from three independent studies
Chain of KPC-38 (Q9F663 25-293 limits assumed): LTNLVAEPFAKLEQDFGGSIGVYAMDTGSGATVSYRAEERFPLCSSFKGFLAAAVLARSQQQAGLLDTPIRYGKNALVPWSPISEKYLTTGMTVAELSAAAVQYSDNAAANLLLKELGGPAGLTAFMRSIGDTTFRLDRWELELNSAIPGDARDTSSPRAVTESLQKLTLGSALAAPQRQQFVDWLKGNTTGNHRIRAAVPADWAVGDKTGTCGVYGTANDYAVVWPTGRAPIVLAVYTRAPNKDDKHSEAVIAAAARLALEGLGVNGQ

[25] = tested on: Bacteroides fragilis KUB2982; assay: MIC, agar dilution, reference strains of anaerobic bacteria; format: cell-based
NDM-7 = NDM-7 (Klebsiella pneumoniae, UniProt C7C422, D130N/M154L); assay: Ki app determination (Waley's method)
Chain of NDM-7 (C7C422 29-270 D130N/M154L): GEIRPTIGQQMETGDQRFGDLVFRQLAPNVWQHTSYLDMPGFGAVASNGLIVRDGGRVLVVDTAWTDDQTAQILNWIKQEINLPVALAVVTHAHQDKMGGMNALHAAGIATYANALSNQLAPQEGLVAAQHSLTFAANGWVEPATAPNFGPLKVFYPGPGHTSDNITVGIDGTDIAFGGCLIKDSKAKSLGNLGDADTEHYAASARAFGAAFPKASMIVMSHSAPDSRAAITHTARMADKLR

[26] = tested on: Bacteroides thetaiotaomicron ATCC 29741; assay: MIC, agar dilution, reference strains of anaerobic bacteria; format: cell-based; details: ATCC29741
[27] = tested on: Fusobacterium nucleatum ATCC 25586; assay: as above; format: cell-based; details: ATCC25586
[28] = tested on: 20 anaerobic strains (including Clostridium perfringens, Atopobium rimae, Bacteroides spp., and Prevotella spp.); format: cell-based
[29] = MEM-nonsusceptible Enterobacterales (127), cefiderocol 126 isolates, tigecycline: FDA breakpoints
[30] = MEM-nonsusceptible Enterobacterales (127), cefiderocol 126 isolates, read-out: MIC50
[31] = MEM-nonsusceptible Enterobacterales (127), cefiderocol 126 isolates, read-out: MIC90
[32] = MEM-nonsusceptible Enterobacterales with serine-carbapenemases (58), tigecycline: FDA breakpoints
[33] = MEM-nonsusceptible Enterobacterales with serine-carbapenemases (58), fixed concentration (μg/mL) in label, read-out: MIC50
[34] = MEM-nonsusceptible Enterobacterales with serine-carbapenemases (58), fixed concentration (μg/mL) in label, read-out: MIC90
[35] = Acinetobacter baumannii (55), fixed concentration (μg/mL) in label
[36] = Enterobacterales with metallo-carbapenemases (74), cefiderocol 73 isolates, tigecycline: FDA breakpoints
[37] = Enterobacterales with metallo-carbapenemases (74), cefiderocol 73 isolates, fixed concentration (μg/mL) in label
[38] = MEM-nonsusceptible Enterobacterales (92), CDC AR Bank
[39] = MEM-nonsusceptible Enterobacterales with serine-carbapenemases (42), CDC AR Bank
[40] = MEM-nonsusceptible Enterobacterales with serine-carbapenemases (42), CDC AR Bank, fixed concentration (μg/mL) in label
[41] = CLSI breakpoints, marked c: breakpoints for β-lactam alone
[42] = fixed concentration (μg/mL) in label
[43] = Enterobacterales with metallo-carbapenemases (47), CDC AR Bank
[44] = Enterobacterales with metallo-carbapenemases (47), CDC AR Bank, fixed concentration (μg/mL) in label

CC(C)(O/N=C(\C(=O)N[C@@H]1C(=O)N2C(C(=O)[O-])=C(C[N+]3(CCNC(=O)c4ccc(O)c(O)c4Cl)CCCC3)CS[C@H]12)c1csc(N)n1)C(=O)O [FDC, cefiderocol]
CLSI MIC interpretation I (intermediate) [1, 29]: 3.2%
CLSI MIC interpretation R (resistant) [1, 29]: 0.8%
CLSI MIC interpretation S (susceptible) [1, 29]: 96%
MIC50 [1, 30]: 1 µg/mL (≈ 1.33 µM)
MIC90 [1, 31]: 2 µg/mL (≈ 2.66 µM)
CLSI MIC interpretation I (intermediate) [2, 32]: 0%
CLSI MIC interpretation R (resistant) [2, 32]: 0%
CLSI MIC interpretation S (susceptible) [2, 32]: 100%
MIC Range ([2]; MEM-nonsusceptible Enterobacterales with serine-carbapenemases (58), fixed concentration (μg/mL) in label): ≤0.06 to 4 µg/mL
MIC50 [2, 33]: 0.5 µg/mL (≈ 0.665 µM)
MIC90 [2, 34]: 2 µg/mL (≈ 2.66 µM)
MIC [3]: 16 µg/mL (≈ 21.3 µM)
CLSI MIC interpretation I (intermediate) ([4]; Acinetobacter baumannii (55)): 3.6%
CLSI MIC interpretation R (resistant) ([4]; Acinetobacter baumannii (55)): 1.8%
CLSI MIC interpretation S (susceptible) ([4]; Acinetobacter baumannii (55)): 94.5%
MIC Range [4, 35]: ≤0.06 to 16 µg/mL
MIC50 ([4]; Acinetobacter baumannii (55), fixed concentration (μg/mL) in label, read-out: MIC50): 0.5 µg/mL (≈ 0.665 µM)
MIC90 ([4]; Acinetobacter baumannii (55), fixed concentration (μg/mL) in label, read-out: MIC90): 4 µg/mL (≈ 5.32 µM)
MIC [5]: 16 µg/mL (≈ 21.3 µM)
MIC [6]: 4 µg/mL (≈ 5.32 µM)
MIC [7]: 8 µg/mL (≈ 10.6 µM)
CLSI MIC interpretation I (intermediate) [8, 36]: 5.5%
CLSI MIC interpretation R (resistant) [8, 36]: 1.4%
CLSI MIC interpretation S (susceptible) [8, 36]: 93.2%
MIC50 [8, 37]: 1 µg/mL (≈ 1.33 µM)
MIC90 [8, 37]: 4 µg/mL (≈ 5.32 µM)
MIC90 ([8]; MBL-producing isolates, comparators): ≤ 4 µg/mL
MIC [9]: 4 µg/mL (≈ 5.32 µM)

C[C@@H](O)[C@H]1C(=O)N2C(C(=O)O)=C(S[C@@H]3CN[C@H](C(=O)N(C)C)C3)[C@H](C)[C@H]12 [MEM, meropenem]
MIC [10]: 0.12 µg/mL (≈ 0.313 µM)
MIC [11]: 32 µg/mL (≈ 83.4 µM)
MIC [12]: ≤ 0.03 µg/mL
MIC [13]: 1 µg/mL (≈ 2.61 µM)
MIC [14]: ≤ 0.03 µg/mL
CLSI MIC interpretation I (intermediate) [1, 38]: 16.3%
CLSI MIC interpretation R (resistant) [1, 38]: 83.7%
CLSI MIC interpretation S (susceptible) [1, 38]: 0%
MIC50 [1, 38]: 8 µg/mL (≈ 20.9 µM)
MIC90 [1, 38]: >32 µg/mL
CLSI MIC interpretation I (intermediate) [1, 29]: 18.1%
CLSI MIC interpretation R (resistant) [1, 29]: 81.9%
CLSI MIC interpretation S (susceptible) [1, 29]: 0%
MIC50 [1, 30]: 8 µg/mL (≈ 20.9 µM)
MIC90 [1, 31]: > 32 µg/mL
CLSI MIC interpretation I (intermediate) [2, 39]: 16.7%
CLSI MIC interpretation R (resistant) [2, 39]: 83.3%
CLSI MIC interpretation S (susceptible) [2, 39]: 0%
MIC50 [2, 40]: 8 µg/mL (≈ 20.9 µM)
MIC90 [2, 40]: 32 µg/mL (≈ 83.4 µM)
CLSI MIC interpretation I (intermediate) [2, 32]: 15.5%
CLSI MIC interpretation R (resistant) [2, 32]: 84.5%
CLSI MIC interpretation S (susceptible) [2, 32]: 0%
MIC50 [2, 33]: 8 µg/mL (≈ 20.9 µM)
MIC90 [2, 34]: 32 µg/mL (≈ 83.4 µM)
CLSI MIC interpretation I (intermediate) [15, 41]: 9.7%
CLSI MIC interpretation R (resistant) [15, 41]: 50%
CLSI MIC interpretation S (susceptible) [15, 41]: 40.3%
MIC50 [15, 42]: 2 µg/mL (≈ 5.22 µM)
MIC90 [15, 42]: 32 µg/mL (≈ 83.4 µM)
MIC [16]: ≤ 0.03 µg/mL
CLSI MIC interpretation I (intermediate) ([4]; Acinetobacter baumannii (55)): 5.5%
CLSI MIC interpretation R (resistant) ([4]; Acinetobacter baumannii (55)): 89.1%
CLSI MIC interpretation S (susceptible) ([4]; Acinetobacter baumannii (55)): 5.5%
MIC50 [4, 35]: 32 µg/mL (≈ 83.4 µM)
MIC50 ([4]; Acinetobacter baumannii, read-out: MIC50): 32 µg/mL (≈ 83.4 µM)
MIC [17]: 0.06 µg/mL (≈ 0.156 µM)
MIC [18]: 0.12 µg/mL (≈ 0.313 µM)
MIC [19]: 0.25 µg/mL (≈ 0.652 µM)
MIC [5]: 8 µg/mL (≈ 20.9 µM)
MIC [6]: 8 µg/mL (≈ 20.9 µM)
MIC [20]: ≤ 0.03 µg/mL
MIC [21]: ≤ 0.03 µg/mL
MIC [7]: 32 µg/mL (≈ 83.4 µM)
CLSI MIC interpretation I (intermediate) [8, 43]: 10.6%
CLSI MIC interpretation R (resistant) [8, 43]: 76.6%
MIC50 [8, 44]: 16 µg/mL (≈ 41.7 µM)
MIC90 [8, 44]: > 32 µg/mL
CLSI MIC interpretation I (intermediate) [8, 36]: 9.5%
CLSI MIC interpretation R (resistant) [8, 36]: 64.9%
CLSI MIC interpretation S (susceptible) [8, 36]: 25.7%
MIC50 [8, 37]: 8 µg/mL (≈ 20.9 µM)
MIC90 [8, 37]: > 32 µg/mL

N[C@@H](C(=O)N1CC(Oc2ccc3c(c2C(=O)O)OB(O)CC3)C1)c1c[nH]cn1 [KSP-1007, 7-({1-[(2R)-2-amino-2-(1H-imidazol-4-yl)acetyl]azetidin-3-yl}oxy)-2-hydroxy-3,4-dihydro-2H-1,2-benzoxaborinine-8-carboxylic acid]
MIC [10]: > 128 µg/mL
MIC [22]: > 256 µg/mL
MIC [11]: > 128 µg/mL
MIC [12]: > 128 µg/mL
MIC [23]: > 256 µg/mL
MIC [13]: 64 µg/mL (≈ 166 µM)
MIC [14]: 4 µg/mL (≈ 10.4 µM)
MIC (Parvimonas micra KUB3000): 64 µg/mL (≈ 166 µM)
Ki (OXA-65): 5.44 ± 1.21 nM
MIC [24]: > 256 µg/mL
Ki (KPC-38): 0.836 ± 0.414 nM
MIC [16]: 4 µg/mL (≈ 10.4 µM)
MIC [25]: 16 µg/mL (≈ 41.4 µM)
Ki (NDM-7): 53 ± 30.2 nM
MIC [17]: 4 µg/mL (≈ 10.4 µM)
MIC [26]: 64 µg/mL (≈ 166 µM)
MIC [18]: > 128 µg/mL
MIC [19]: > 128 µg/mL
MIC [27]: 32 µg/mL (≈ 82.9 µM)
MIC [20]: 2 µg/mL (≈ 5.18 µM)
MICs, range [28]: 2 to 256 µg/mL
MIC [21]: > 128 µg/mL

— paper PMC11620503 (Antimicrobial Agents and Chemotherapy, 2024)
